Patent publication US9469650B2, “Melampomagnolide B derivatives” (BOARD OF TRUSTEES OF THE UNIVERSITY OF ARKANSAS, priority 2013, dated 2016)

Columns and labels:
[1] = tested on: K-562; experiment: panel of 60 human tumor cell lines, growth inhibition (Leukemia)
[2] = tested on: MDA-MB-435; experiment: panel of 60 human tumor cell lines, growth inhibition (Melanoma); conditions: Homo sapiens
[3] = tested on: SF-268; experiment: panel of 60 human tumor cell lines, growth inhibition (CNS Cancer); conditions: Homo sapiens
[4] = tested on: SF-539; experiment: as above; conditions: Homo sapiens
[5] = tested on: COLO 205; experiment: panel of 60 human tumor cell lines, growth inhibition (Colon Cancer); conditions: Homo sapiens
[6] = tested on: HCT-116; experiment: as above; conditions: Homo sapiens
[7] = tested on: SW-620; experiment: as above; conditions: Homo sapiens
[8] = tested on: 786-0; experiment: panel of 60 human tumor cell lines, growth inhibition (Renal Cancer); conditions: Homo sapiens
[9] = tested on: ACHN; experiment: as above; conditions: Homo sapiens
[10] = tested on: UO-31; experiment: as above; conditions: Homo sapiens
[11] = tested on: HS 578T; experiment: panel of 60 human tumor cell lines, growth inhibition (Breast Cancer); conditions: Homo sapiens, Hs-578T
[12] = tested on: BT-549; experiment: as above; conditions: Homo sapiens
[13] = tested on: T-47D; experiment: as above; conditions: Homo sapiens, T47D
[14] = tested on: IGROV1; experiment: panel of 60 human tumor cell lines, growth inhibition (Ovarian Cancer); conditions: Homo sapiens
[15] = tested on: OVCAR-5; experiment: as above; conditions: Homo sapiens
[16] = tested on: OVCAR-8; experiment: as above; conditions: Homo sapiens
[17] = tested on: NCI/ADR-RES; experiment: as above; conditions: Homo sapiens
[18] = tested on: NCI-H522; experiment: panel of 60 human tumor cell lines, growth inhibition (Non-Small Cell Lung Cancer); conditions: Homo sapiens

C=C1C(=O)O[C@H]2[C@H]1CC/C(COC(=O)NCCCCCCO)=C\CC[C@@]1(C)O[C@@H]21 [JVM 2-31]
GI50 ([1]; Homo sapiens, K562): 4.96 µM
CC50 ([1]; Homo sapiens, K562, read-out: LC50): > 100 µM
Percent Growth ([1]; K-562, Log10 Concentration −4.0): −33%
Percent Growth ([1]; K-562, Log10 Concentration −5.0): 28%
Percent Growth ([1]; K-562, Log10 Concentration −6.0): 101%
Percent Growth ([1]; K-562, Log10 Concentration −7.0): 113%
Percent Growth ([1]; K-562, Log10 Concentration −8.0): 102%
TGI ([1]; K-562, NCI five dose): 2.88E−5
GI50 ([2]; MDA-MB-435): 4.45 µM
CC50 ([2]; MDA-MB-435, read-out: LC50): 70.9 µM
IC (TGI) ([2]; MDA-MB-435, read-out: TGI): 20.2 µM
GI50 ([3]; SF-268): 8.59 µM
CC50 ([3]; SF-268, read-out: LC50): 73 µM
IC (TGI) ([3]; SF-268, read-out: TGI): 26 µM
GI50 ([4]; SF-539): 2420 nM
CC50 ([4]; SF-539, read-out: LC50): 34.8 µM
IC (TGI) ([4]; SF-539, read-out: TGI): 8.33 µM
GI50 ([5]; COLO 205): 2560 nM
CC50 ([5]; COLO 205, read-out: LC50): 32 µM
IC (TGI) ([5]; COLO 205, read-out: TGI): 6.39 µM
GI50 ([6]; HCT-116, HCT-116, NCI five dose): 2780 nM
CC50 ([6]; HCT-116, read-out: LC50): 34 µM
IC (TGI) ([6]; HCT-116, read-out: TGI): 11 µM
GI50 ([7]; SW-620, SW-620, NCI five dose): 2930 nM
CC50 ([7]; SW-620, read-out: LC50): 74 µM
IC (TGI) ([7]; SW-620, read-out: TGI): 13.3 µM
GI50 ([8]; 786-0): 2990 nM
CC50 ([8]; 786-0, read-out: LC50): 43.7 µM
IC (TGI) ([8]; 786-0, read-out: TGI): 13.1 µM
GI50 [9]: 3.21 µM
CC50 ([9]; read-out: LC50): 49.6 µM
IC (TGI) ([9]; read-out: TGI): 13.6 µM
GI50 ([10]; UO-31): 5.91 µM
CC50 ([10]; UO-31, read-out: LC50): 62.6 µM
IC (TGI) ([10]; UO-31, read-out: TGI): 21.2 µM
GI50 [11]: 3.92 µM
CC50 ([11]; read-out: LC50): > 100 µM
IC (TGI) ([11]; read-out: TGI): 85.7 µM
GI50 ([12]; BT-549): 2860 nM
CC50 ([12]; BT-549, read-out: LC50): 43.4 µM
IC (TGI) ([12]; BT-549, read-out: TGI): 17.4 µM
GI50 [13]: 2780 nM
CC50 ([13]; read-out: LC50): 87.9 µM
IC (TGI) ([13]; read-out: TGI): 10 µM
GI50 ([14]; IGROV-1): 17.4 µM
CC50 ([14]; IGROV-1, read-out: LC50): 80.7 µM
IC (TGI) ([14]; IGROV-1, read-out: TGI): 37.5 µM
GI50 ([15]; OVCAR-5): 13.4 µM
CC50 ([15]; OVCAR-5, read-out: LC50): 64.1 µM
IC (TGI) ([15]; OVCAR-5, read-out: TGI): 29.3 µM
GI50 ([16]; OVCAR-8): 10.2 µM
CC50 ([16]; OVCAR-8, read-out: LC50): 76 µM
IC (TGI) ([16]; OVCAR-8, read-out: TGI): 27.9 µM
GI50 [17]: 28.1 µM
CC50 ([17]; read-out: LC50): > 100 µM
IC (TGI) ([17]; read-out: TGI): > 100 µM
GI50 ([18]; NCI-H522): 1700 nM
CC50 ([18]; NCI-H522, read-out: LC50): 8.15 µM
IC (TGI) ([18]; NCI-H522, read-out: TGI): 3.72 µM
